In ChEMBL document CHEMBL1201862, “PubChem BioAssay data set” (2004):
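All cell lines were grown in 96-well plates and treated with compound for 48 hours. Abbreviation: GI50, concentration required for 50% inhibition of growth.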 Active and inactive are the calls of the source. Rule as the data show it: active = GI50 up to about 1.1 µM and inactive = higher.

Legend:
Assay in all cases: NCI anticancer screen, dose series, 48 h
OVCAR-8 = test system: OVCAR-8
Malme-3M = test system: Malme-3M
IGROV-1 = test system: IGROV-1
786-0 = test system: 786-0
U-251 = test system: U-251
SNB-75 = test system: SNB-75
MOLT-4 = test system: MOLT-4
NCI-H460 = test system: NCI-H460
M14 = test system: M14
SK-OV-3 = test system: SK-OV-3
BT-549 = test system: BT-549
NCI/ADR-RES = test system: NCI/ADR-RES
KM12 = test system: KM12
MCF7 = test system: MCF7
SW-620 = test system: SW-620
K562 = test system: K562
SNB-19 = test system: SNB-19
A549 = test system: A549
EKVX = test system: EKVX
SN12C = test system: SN12C

SMILES | GI50 (OVCAR-8) | GI50 (Malme-3M) | GI50 (IGROV-1) | GI50 (786-0) | GI50 (U-251) | GI50 (SNB-75) | GI50 (MOLT-4) | GI50 (NCI-H460) | GI50 (M14) | GI50 (SK-OV-3) | GI50 (BT-549) | GI50 (NCI/ADR-RES) | GI50 (KM12) | GI50 (MCF7) | GI50 (SW-620) | GI50 (K562) | GI50 (SNB-19) | GI50 (A549) | GI50 (EKVX) | GI50 (SN12C)
CC(C)(C)n1nc(C2CC2)cc1NC(=O)Nc1ccc(Cl)cc1 | > 100 µM (inactive) | > 100 µM (inactive) | > 100 µM (inactive) | > 100 µM (inactive) | > 100 µM (inactive) | 78 µM (inactive) | > 100 µM (inactive) | > 100 µM (inactive) | > 100 µM (inactive) | > 100 µM (inactive) | > 100 µM (inactive) | > 100 µM (inactive) | > 100 µM (inactive) | > 100 µM (inactive) | > 100 µM (inactive) | > 100 µM (inactive) | > 100 µM (inactive) | > 100 µM (inactive) | > 100 µM (inactive) | > 100 µM (inactive)
Cc1ccc(/C=C2\NC(=S)NC2=O)cc1 | > 100 µM (inactive) | > 100 µM (inactive) | > 100 µM (inactive) | > 100 µM (inactive) | > 100 µM (inactive) | > 100 µM (inactive) | > 100 µM (inactive) |  | > 100 µM (inactive) | > 100 µM (inactive) | > 100 µM (inactive) | > 100 µM (inactive) | > 100 µM (inactive) | > 100 µM (inactive) | > 100 µM (inactive) | > 100 µM (inactive) | > 100 µM (inactive) | > 100 µM (inactive) | 62.8 µM (inactive) | > 100 µM (inactive)
COc1ccc(C2=C(N)c3ncccc3C2=O)cc1 | > 100 µM (inactive) | 43.9 µM (inactive) | > 100 µM (inactive) | > 100 µM (inactive) | > 100 µM (inactive) | > 100 µM (inactive) | > 100 µM (inactive) | > 100 µM (inactive) | > 100 µM (inactive) | > 100 µM (inactive) | > 100 µM (inactive) | > 100 µM (inactive) | > 100 µM (inactive) | > 100 µM (inactive) | > 100 µM (inactive) | > 100 µM (inactive) | > 100 µM (inactive) |  | 45 µM (inactive) | > 100 µM (inactive)
Cc1c(-c2ccccc2)c(-c2ccc(OCCN(C)C)cc2)n2ccccc12 | 13.8 µM (inactive) | 4.38 µM (inactive) | 10.1 µM (inactive) | 7.11 µM (inactive) | 7.76 µM (inactive) | 8.38 µM (inactive) | 3.48 µM (inactive) | 2.51 µM (inactive) | 1.79 µM (inactive) | 15.8 µM (inactive) | 5.65 µM (inactive) | 13.2 µM (inactive) | 3.82 µM (inactive) | 7.62 µM (inactive) | 5.5 µM (inactive) | 1.84 µM (inactive) | 12 µM (inactive) | 13.9 µM (inactive) | 15.3 µM (inactive) | 12.1 µM (inactive)
Cc1[nH]c2ncn3[nH]c(=S)nc3c2c1Cc1ccccc1 | > 100 µM (inactive) | > 100 µM (inactive) | 48.1 µM (inactive) | > 100 µM (inactive) | > 100 µM (inactive) | 25.2 µM (inactive) | > 100 µM (inactive) | > 100 µM (inactive) | > 100 µM (inactive) | > 100 µM (inactive) | > 100 µM (inactive) | > 100 µM (inactive) | > 100 µM (inactive) | 52.6 µM (inactive) | > 100 µM (inactive) |  | > 100 µM (inactive) | > 100 µM (inactive) | > 100 µM (inactive) | > 100 µM (inactive)
N#[N+]c1cc2c(cc1Br)-c1ccccc1C2 | 15.6 µM (inactive) | 40 µM (inactive) | 38.8 µM (inactive) | > 100 µM (inactive) | 82.2 µM (inactive) | > 100 µM (inactive) | 10.3 µM (inactive) | > 100 µM (inactive) | > 100 µM (inactive) | > 100 µM (inactive) | 70 µM (inactive) | > 100 µM (inactive) | > 100 µM (inactive) | 45.5 µM (inactive) | > 100 µM (inactive) | 8.39 µM (inactive) | 71.3 µM (inactive) | 95.9 µM (inactive) | 24.5 µM (inactive) | > 100 µM (inactive)
Cc1c(-c2ccccc2)c(C#N)c2nnn(-c3ccc(Cl)cc3)c(=O)n12 | 25.3 µM (inactive) | 81.3 µM (inactive) | 32.7 µM (inactive) | 18.3 µM (inactive) | 13.8 µM (inactive) | 30.9 µM (inactive) |  | 4.83 µM (inactive) | 5.08 µM (inactive) | 89.7 µM (inactive) | 56.8 µM (inactive) | 17.6 µM (inactive) | 24.2 µM (inactive) | 7.59 µM (inactive) | 25.2 µM (inactive) | 0.668 µM (active) | > 100 µM (inactive) | 21.5 µM (inactive) | 50.9 µM (inactive) | 35.2 µM (inactive)
c1ccc2c(Nc3ncco3)cccc2c1 | > 10 µM (inactive) | > 10 µM (inactive) | > 10 µM (inactive) | > 10 µM (inactive) | > 10 µM (inactive) | > 10 µM (inactive) | > 10 µM (inactive) | > 10 µM (inactive) | > 10 µM (inactive) | > 10 µM (inactive) | > 10 µM (inactive) | > 10 µM (inactive) | > 10 µM (inactive) | > 10 µM (inactive) | > 10 µM (inactive) | > 10 µM (inactive) | > 10 µM (inactive) | > 10 µM (inactive) | > 10 µM (inactive) | > 10 µM (inactive)
O=C(CSc1nnc(-c2ccccn2)s1)N/N=C/c1ccc([N+](=O)[O-])cc1 | 41.8 µM (inactive) | > 100 µM (inactive) | 20.9 µM (inactive) | 41.9 µM (inactive) | 14.5 µM (inactive) | 2.86 µM (inactive) | > 100 µM (inactive) | > 100 µM (inactive) | > 100 µM (inactive) | 35.2 µM (inactive) | 56.2 µM (inactive) | > 100 µM (inactive) | > 100 µM (inactive) | > 100 µM (inactive) | > 100 µM (inactive) | > 100 µM (inactive) | 21.9 µM (inactive) | 58.5 µM (inactive) |  | 69.8 µM (inactive)
Brc1ccc(-c2cn3ccncc3n2)cc1 | > 100 µM (inactive) | > 100 µM (inactive) | > 100 µM (inactive) | > 100 µM (inactive) | > 100 µM (inactive) | > 100 µM (inactive) | 60.3 µM (inactive) | > 100 µM (inactive) | > 100 µM (inactive) | > 100 µM (inactive) | > 100 µM (inactive) | > 100 µM (inactive) | > 100 µM (inactive) | > 100 µM (inactive) |  | > 100 µM (inactive) | > 100 µM (inactive) | > 100 µM (inactive) | 63.8 µM (inactive) | > 100 µM (inactive)
CC(=O)O[C@H]1CC[C@@]2(C)C(=C[C@H](c3ccc(O)cc3)[C@H]3[C@@H]4CC[C@H](OC(C)=O)[C@@]4(C)CC[C@@H]32)C1 | 16.9 µM (inactive) | 17.9 µM (inactive) |  | 19.6 µM (inactive) | 22.1 µM (inactive) | 24.7 µM (inactive) | 18.4 µM (inactive) | 20.5 µM (inactive) | 19 µM (inactive) | > 100 µM (inactive) | 14.2 µM (inactive) | 13.5 µM (inactive) | 16.6 µM (inactive) | 23 µM (inactive) | 22 µM (inactive) | 12.9 µM (inactive) | 19.9 µM (inactive) | 16.3 µM (inactive) | 20.8 µM (inactive) | 23 µM (inactive)
C=CCNC(=O)NC(=O)CSC1=NC(=O)C2(NN1)c1ccccc1-c1ccccc12 | > 10 µM (inactive) | > 10 µM (inactive) | > 10 µM (inactive) | > 10 µM (inactive) |  | > 10 µM (inactive) | > 10 µM (inactive) | > 10 µM (inactive) | > 10 µM (inactive) | > 10 µM (inactive) | > 10 µM (inactive) | > 10 µM (inactive) | > 10 µM (inactive) | > 10 µM (inactive) | > 10 µM (inactive) | > 10 µM (inactive) | > 10 µM (inactive) | > 10 µM (inactive) | > 10 µM (inactive) | > 10 µM (inactive)
O=c1[nH]c(=O)n(C2CC(O)C(CO)O2)cc1OCCCc1ccccc1 (centres undefined) | > 100 µM (inactive) | > 100 µM (inactive) | > 100 µM (inactive) | > 100 µM (inactive) | > 100 µM (inactive) | > 100 µM (inactive) | > 100 µM (inactive) | > 100 µM (inactive) | > 100 µM (inactive) | > 100 µM (inactive) | > 100 µM (inactive) | > 100 µM (inactive) | > 100 µM (inactive) | > 100 µM (inactive) |  | > 100 µM (inactive) | > 100 µM (inactive) | > 100 µM (inactive) | > 100 µM (inactive) | > 100 µM (inactive)
CCSc1n/c(=C\c2ccco2)c2nnnn12 | > 100 µM (inactive) | > 100 µM (inactive) | > 100 µM (inactive) | > 100 µM (inactive) | > 100 µM (inactive) | > 100 µM (inactive) | > 100 µM (inactive) |  | > 100 µM (inactive) | > 100 µM (inactive) | > 100 µM (inactive) | > 100 µM (inactive) | > 100 µM (inactive) | > 100 µM (inactive) | > 100 µM (inactive) |  | > 100 µM (inactive) | > 100 µM (inactive) | > 100 µM (inactive) | > 100 µM (inactive)
